Source: ChEMBL document CHEMBL3045632, “Synthetic inhibitors of the fungal detoxifying enzyme brassinin oxidase based on the phytoalexin camalexin scaffold” (J Agric Food Chem, 2009)

What was measured:
Plenodomus lingam [1] = assay: Inhibition of Leptosphaeria maculans brassinin oxidase assessed as relative specific activity at 0.20 mM relative to control
Plenodomus lingam [2] = assay: Inhibition of Leptosphaeria maculans brassinin oxidase activity at 0.30 mM relative to control
Plenodomus lingam [3] = assay: Antifungal activity against Leptosphaeria maculans assessed as inhibition of mycelial growth at 0.10 mM relative to control; type: functional
Plenodomus lingam [4] = assay: Inhibition of Leptosphaeria maculans brassinin oxidase assessed as relative specific activity at 0.50 mM relative to control
Plenodomus lingam [5] = assay: Inhibition of Leptosphaeria maculans brassinin oxidase assessed as relative protein at 0.20 mM relative to control
Plenodomus lingam [6] = assay: Inhibition of Leptosphaeria maculans brassinin oxidase activity at 0.10 mM relative to control
Plenodomus lingam [7] = assay: Inhibition of Leptosphaeria maculans brassinin oxidase assessed as relative specific activity at 0.10 mM relative to control
Plenodomus lingam [8] = assay: Inhibition of Leptosphaeria maculans brassinin oxidase assessed as relative protein at 0.10 mM relative to control
Plenodomus lingam [9] = assay: Inhibition of Leptosphaeria maculans brassinin oxidase assessed as relative protein at 0.50 mM relative to control
Plenodomus lingam [10] = assay: Antifungal activity against Leptosphaeria maculans assessed as inhibition of mycelial growth at 0.50 mM relative to control; type: functional
Plenodomus lingam [11] = assay: Antifungal activity against Leptosphaeria maculans assessed as inhibition of mycelial growth at 0.20 mM relative to control; type: functional
[12] = Solubility of the compound at 50 mM; type: physicochemical; details: 50000 µM

Row | SMILES | Ratio (Plenodomus lingam [1]) | inhibition (Plenodomus lingam [2]) | inhibition at 100 µM (Plenodomus lingam [3]) | Ratio (Plenodomus lingam [4]) | Ratio (Plenodomus lingam [5]) | inhibition (Plenodomus lingam [6]) | Ratio (Plenodomus lingam [7]) | Ratio (Plenodomus lingam [8]) | Ratio (Plenodomus lingam [9]) | inhibition at 500 µM (Plenodomus lingam [10]) | inhibition at 200 µM (Plenodomus lingam [11]) | solubility [12]
1 | c1ccc2[nH]c(-c3cscn3)nc2c1 [THIABENDAZOLE] | 4.1 | 25% | 100% | 4.9 | 0.28 | 16% | 1.9 | 0.35 | 0.06 |  |  | 
2 | Fc1ccc2c(-c3nccs3)c[nH]c2c1 [6-FLUOROCAMALEXIN] | 4 | 46% | 29% | 1.8 | 0.28 | 29% | 3.9 | 0.36 | 0.24 | 83% | 47% | 
3 | Fc1ccc2[nH]cc(-c3nccs3)c2c1 [5-FLUOROCAMALEXIN] | 4.9 | 63% | 76% | 7.9 | 0.23 | 47% | 5 | 0.3 | 0.19 | 100% | 81% | 
4 | c1ccc(-c2c[nH]c3ccccc23)cc1 [3-PHENYLINDOLE] | 39.2 |  | 100% | 5.7 | 0.14 |  | 30.9 | 0.18 | 0.1 |  |  | 
5 | c1ccc2cc(-c3cnsc3)ccc2c1 [2-NAPHTHALENYLISOTHIAZOLE] | 8.5 | 42% | 41% | 16.3 | 0.17 | 29% | 2.6 | 0.26 | 0.16 |  | 53% | Insoluble
6 | c1ccc2c(-c3cnsc3)cccc2c1 |  | 21% |  |  |  | 16% |  |  |  |  |  | 
7 | c1ccc2c(-c3nccs3)c[nH]c2c1 [CAMALEXIN] | 6.9 | 53% | 35% | 2.5 | 0.24 | 30% | 4.5 | 0.28 | 0.1 | 100% | 65% | 
8 | Fc1ccc2c(-c3ccccc3)c[nH]c2c1 |  | 17% |  |  |  | 11% |  |  |  |  |  | 
9 | COc1ccc2c(-c3nccs3)c[nH]c2c1 [6-METHOXYCAMALEXIN] | 3.7 | 63% | 17% | 4 | 0.16 | 41% | 2.3 | 0.27 | 0.11 | 100% | 78% | 
10 | COc1ccc2[nH]cc(-c3nccs3)c2c1 [5-METHOXYCAMALEXIN] | 5.8 | 72% | 60% | 1.6 | 0.24 | 51% | 1.7 | 0.28 | 0.13 | 100% | 84% | 
